The source of these data is patent US7414048B2, “4,5-dihydro-isoxazole derivatives and their pharmaceutical use” (Janssen Pharmaceutica, N.V., priority 1998, dated 2008).

SMILES strings stand for the structures.

The test system of the first assay is T cell blast formation in human blood. Nature of the assay: In vitro inhibition of T cell blast formation in human blood (human whole blood blast formation, PHA stimulated, flow cytometry). In kind it is cell-based. Particulars: Test Dose 1 × 10^−5 (unit not given), 72 hours, mean where multiple measurements. The method, then:
Cells are collected after a 72 hours culture period at 37° C., supernatant is removed by centrifugation and red blood cells are lysed by a hypotonic buffer. The remaining white blood cells are collected in PBS containing propidium iodide. The blast formation is analyzed using a benchtop flow cytometer (Cytoron, Ortho) equipped with an argon-ion laser. […] When multiple measurements were performed, a mean value was calculated for the percentage inhibition of T cell blast formation.
In general terms: Flow cytometry measures light scatter and fluorescence of single cells or particles in a stream.
On to `Cn1nc(-c2ccc(NC(=O)C3CC(c4cccnc4)=NO3)cc2)c2ccc(F)cc21` (centres unmarked) [Compound 465], for which the “% Inhibition of T cell blast formation” value stood at 83%. For the compound `O=C(Nc1ccc(-c2noc3cc(F)ccc23)cc1)C1CC(c2cccnc2)=NO1` (centres unmarked) [Compound 466], the “% Inhibition of T cell blast formation” value came to 82%.

Still in this assay, the particulars now being: Test Dose 1 × 10^−6 (unit not given), 72 hours, mean where multiple measurements.
As for `CCCCOC(c1ccccc1)c1ccc(NC(=O)C2CC(c3cccnc3)=NO2)cc1.Cl` (centres unmarked) [Compound 417], the “% Inhibition of T cell blast formation” value was 42%. The same measure, in the same setting: the result for `CC(C)OC(c1ccccc1)c1ccc(NC(=O)C2CC(c3cccnc3)=NO2)cc1.Cl` (centres unmarked) [Compound 418] reads 75%; that for `CN(C)C(=O)c1ccc(CNC(=O)c2ccc(NC(=O)C3CC(c4cccnc4)=NO3)cc2)cc1` (centres unmarked) [Compound 426], 82%.

With `CNC(=O)c1ccc(CNC(=O)c2ccc(NC(=O)C3CC(c4cccnc4)=NO3)cc2)cc1` (centres unmarked) [Compound 427], the “% Inhibition of T cell blast formation” value is reported as 80%.

For `O=C(Nc1ccc(C(=NO)c2ccc3c(c2)OCO3)cc1)C1CC(c2cccnc2)=NO1` (centres unmarked) [Compound 429], the “% Inhibition of T cell blast formation” value is reported as 86%. The same measure, in the same setting: the result for `O=C(Nc1ccc(C(=NO)c2cnc3ccccc3c2)cc1)C1CC(c2cccnc2)=NO1` (centres unmarked) [Compound 432] reads 65%; that for `O=C(Nc1ccc(C(=NO)c2ccccn2)cc1)C1CC(c2cccnc2)=NO1` (centres unmarked) [Compound 439], 79%; that for `COC(C(N)=O)(c1ccccc1)c1ccc(NC(=O)C2CC(c3cccnc3)=NO2)cc1` (centres unmarked) [Compound 442], 75%. The same measure, in the same setting: the result for `O=C(Nc1ccc(-c2noc(-c3ccccc3)n2)cc1)C1CC(c2cccnc2)=NO1` (centres unmarked) [Compound 452] reads 79%.

As to `O=C(Nc1ccc(-c2nc(-c3ccccc3)no2)cc1)C1CC(c2cccnc2)=NO1` (centres unmarked) [Compound 453], the “% Inhibition of T cell blast formation” value is 61%. Regarding `CN1N=C(c2ccc(NC(=O)C3CC(c4cccnc4)=NO3)cc2)CC1c1ccccc1` (centres unmarked) [Compound 459], the “% Inhibition of T cell blast formation” value is given as 77%. Still for that read-out and setting: under `O=C(Nc1ccc(-n2cnc3ccccc32)cc1)C1CC(c2cccnc2)=NO1` (centres unmarked) [Compound 464] stands 85%. Same read-out and setting: under `Cc1nc2ccccc2n1-c1ccc(NC(=O)C2CC(c3cccnc3)=NO2)cc1` (centres unmarked) [Compound 467] stands 82%. Regarding `O=C(c1ccc(NC(=O)C2CC(c3cccnc3)=NO2)cc1)c1cccs1` (centres unmarked) [Compound 490], the “% Inhibition of T cell blast formation” value is listed as 58%.

Take `CC(O)(c1ccccc1)c1ccc(NC(=O)C2CC(c3cccnc3)=NO2)cc1` (centres unmarked) [Compound 510, (B1)-4,5-dihydro-N-[4-(1-hydroxy-1-phenylethyl)phenyl]-3-(3-pyridinyl)-5-isoxazolecarboxamide]: the “% Inhibition of T cell blast formation” value is reported as 76%. Same read-out and setting: the result for `COC(=O)OC(C#N)(c1ccccc1)c1ccc(NC(=O)C2CC(c3cccnc3)=NO2)cc1` (centres unmarked) [Compound 524] reads 81%.

Staying with this assay, now noted: Test Dose 1 × 10^−7 (unit not given), 72 hours, mean where multiple measurements.
For the compound `O=C(Nc1ccc(C(=NO)c2ccncc2)cc1)C1CC(c2cccnc2)=NO1` (centres unmarked) [Compound 428], the “% Inhibition of T cell blast formation” value turned out to be 57%. Still for that read-out and setting: under `COc1ccccc1C(=NO)c1ccc(NC(=O)C2CC(c3cccnc3)=NO2)cc1` (centres unmarked) [Compound 434] stands 83%; under `O=C(Nc1ccc(C(=NO)c2ccc(F)cc2F)cc1)C1CC(c2cccnc2)=NO1` (centres unmarked) [Compound 435], 81%; under `COc1ccc(C(=NO)c2ccc(NC(=O)C3CC(c4cccnc4)=NO3)cc2)c(OC)c1` (centres unmarked) [Compound 438], 82%.

For `COc1ccc(OC)c(C(=NO)c2ccc(NC(=O)C3CC(c4cccnc4)=NO3)cc2)c1` (centres unmarked) [Compound 440], the “% Inhibition of T cell blast formation” value is 77%. For the compound `O.O=C(c1ccccc1)c1ccc(NC(=O)[C@@H]2CC(c3cccnc3)=NO2)cc1` [Compound 491, (S)-N-(4-benzoylphenyl)-4,5-dihydro-3-(3-pyridinyl)-5-isoxazolecarboxamide (1:1) monohydrate], the “% Inhibition of T cell blast formation” value came to 70%.

The assay is the same for the next values; noted with them: Test Dose 3 × 10^−7 (unit not given), 72 hours, mean where multiple measurements.
For `CN(C)C(=O)c1ccc(CNC(=O)c2ccc(NC(=O)C3CC(c4cccnc4)=NO3)cc2)cc1` (centres unmarked) [Compound 426], the “% Inhibition of T cell blast formation” value came to 65%. For `O=C(Nc1ccc(C(=NO)c2cccc(OC(F)(F)F)c2)cc1)C1CC(c2cccnc2)=NO1` (centres unmarked) [Compound 430], the “% Inhibition of T cell blast formation” value is on record as 67%. Regarding `O=C(Nc1ccc(C(=NO)c2c(F)cccc2F)cc1)C1CC(c2cccnc2)=NO1` (centres unmarked) [Compound 431], the “% Inhibition of T cell blast formation” value was 71%.

On to `COc1cc(C(=NO)c2ccc(NC(=O)C3CC(c4cccnc4)=NO3)cc2)cc(OC)c1OC` (centres unmarked) [Compound 436], for which the “% Inhibition of T cell blast formation” value stood at 78%. Still for that read-out and setting: the result for `COc1ccc(C(=NO)c2ccc(NC(=O)C3CC(c4cccnc4)=NO3)cc2)cc1OC` (centres unmarked) [Compound 437] reads 75%; that for `O=C(Cc1ccc(NC(=O)C2CC(c3cccnc3)=NO2)cc1)Nc1ccccc1` (centres unmarked) [Compound 451], 80%. Still for that read-out and setting: the result for `O=C(Nc1ccc(-c2nc(-c3ccccc3)cs2)cc1)C1CC(c2cccnc2)=NO1` (centres unmarked) [Compound 454] reads 59%; that for `CN1N=C(c2ccccc2)CC1c1ccc(NC(=O)C2CC(c3cccnc3)=NO2)cc1` (centres unmarked) [Compound 457], 67%; that for `O=C(Nc1ccc(-c2n[nH]c3cc(F)ccc23)cc1)C1CC(c2cccnc2)=NO1` (centres unmarked) [Compound 463], 33%. Still for that read-out and setting: under `CC(C)=NOC(c1ccccc1)c1ccc(NC(=O)[C@@H]2CC(c3cccnc3)=NO2)cc1` (stereo partly drawn) [Compound 504, (5S)-4,5-dihydro-N-[4-[[[(1-methylethylidene)amino]oxo]phenylmethyl]phenyl]-3-(3-pyridinyl)-5-isoxazolecarboxamide] stands 75%; under `CC(C)OC(=O)OC(c1ccccc1)c1ccc(NC(=O)[C@@H]2CC(c3cccnc3)=NO2)cc1` (some centres unmarked) [Compound 508, [5S(A)]-[4-[[[4,5-dihydro-3-(3-pyridinyl)-5-isoxazolyl]carbonyl]amino]phenyl]phenylmethyl 1-methylethyl carbonic acid (ester)], 70%.
